Numbered stars: 1 amine (or outer) side, 2 acyl side, 3 side chain; on linkers, the order of the positions; unused ones are H or OH. Square brackets hold non-standard residues; d marks the D form. Peptide text beside a SMILES is read from it. * marks the point of attachment. X2 = CC(C(=O)[*:2])n1cc(C(CCCNC(=N)N)N[*:1])nn1; X1 = C[C@@H](O)[C@H](NN(CCCNC(N)N)CN*)C(N)=O; NH(4-amidinobenzyl) = N=C(N)c1ccc(CN*)cc1
Tests used:
Furin [1] = biological target: T1, Furin (Homo sapiens, UniProt P09958); assay: Inhibition of human furin using Pyr-RTKR-AMC as substrate preincubated for 30 mins followed by substrate addition and measured by fluorescence based assay
T1 sequence (P09958 whole entry): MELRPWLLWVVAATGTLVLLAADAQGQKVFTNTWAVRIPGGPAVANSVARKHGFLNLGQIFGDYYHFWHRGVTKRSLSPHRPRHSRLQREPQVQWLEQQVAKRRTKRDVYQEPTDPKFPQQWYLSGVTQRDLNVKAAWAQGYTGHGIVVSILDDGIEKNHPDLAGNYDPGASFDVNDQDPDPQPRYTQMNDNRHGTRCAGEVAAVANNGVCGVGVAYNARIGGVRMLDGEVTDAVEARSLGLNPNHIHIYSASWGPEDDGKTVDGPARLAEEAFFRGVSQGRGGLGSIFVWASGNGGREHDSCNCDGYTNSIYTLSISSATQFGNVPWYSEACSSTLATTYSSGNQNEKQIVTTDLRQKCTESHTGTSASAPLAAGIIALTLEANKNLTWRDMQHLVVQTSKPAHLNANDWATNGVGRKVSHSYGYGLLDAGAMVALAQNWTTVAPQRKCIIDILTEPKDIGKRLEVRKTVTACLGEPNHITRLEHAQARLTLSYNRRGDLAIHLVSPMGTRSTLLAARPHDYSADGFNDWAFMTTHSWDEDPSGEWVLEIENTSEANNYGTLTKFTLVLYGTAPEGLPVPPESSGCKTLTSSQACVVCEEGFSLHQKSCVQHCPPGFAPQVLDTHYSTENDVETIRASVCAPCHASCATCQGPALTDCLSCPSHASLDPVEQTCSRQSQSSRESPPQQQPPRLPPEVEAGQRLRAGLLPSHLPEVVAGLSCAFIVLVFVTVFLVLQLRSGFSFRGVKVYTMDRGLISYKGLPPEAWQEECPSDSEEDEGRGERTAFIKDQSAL

Mus musculus [2] = assay: Antifibrotic activity against bleomycin-induced mouse lung fibrosis model assessed as inhibition of TGF-beta secretion in lung at 10 mg/kg, ip administered once daily; assay type: functional
Mus musculus [3] = assay: Antifibrotic activity against bleomycin-induced mouse lung fibrosis model assessed as inhibition of hydroxyproline content in lung at 10 mg/kg, ip administered once daily; assay type: functional
Furin [4] = biological target: T1, Furin; assay: Inhibition of furin in human U2OS cells measured after 24 hrs by fluorescence assay; assay type: cell-based
Mus musculus [5] = assay: Antifibrotic activity against bleomycin-induced mouse lung fibrosis model assessed as inhibition of hydroxyproline content in lung at 10 mg/kg, ip administered twice daily; assay type: functional
Mus musculus [6] = assay: Antifibrotic activity against bleomycin-induced mouse lung fibrosis model assessed as inhibition of TGF-beta secretion in lung at 10 mg/kg, ip administered twice daily; assay type: functional
Furin [7] = biological target: T1, Furin; assay: Inhibition of soluble recombinant human furin using pyroGlu-Arg-Thr-Lys-Arg-AMC as substrate and measured by fluorescence assay
Furin [8] = biological target: T1, Furin; assay: Inhibition of human furin expressed in HEK293 cells using pGlu-Arg-Thr-LysArg-AMC as substrate and measured by fluorescence based assay
[9] = Stability in mouse plasma assessed as half-life; assay type: ADME, cell-free
Vero = assay: Protective activity against Escherichia coli O157:H7 Shiga toxin-induced cytotoxicity in monkey Vero cells measured by LDH assay; assay type: functional, cell-based; conditions: Chlorocebus sabaeus
[10] = Stability in mouse plasma assessed as compound remaining measured after 24 hrs; assay type: ADME, cell-free; conditions: read-out: Stability
Furin [11] = biological target: T1, Furin; assay: Inhibition of furin (unknown origin)
Mus musculus [12] = assay: Antifibrotic activity against bleomycin-induced mouse lung fibrosis model assessed as inhibition of hydroxyproline content in lung at 30 mg/kg, po administered once daily; assay type: functional
Mus musculus [13] = assay: Antifibrotic activity against bleomycin-induced mouse lung fibrosis model assessed as inhibition of TGF-beta secretion in lung at 30 mg/kg, po administered once daily; assay type: functional
[14] = Dissociation constant, pKa of the compound; assay type: physicochemical

Compound: CC(=O)N[C@@H](CCCNC(=N)N)C(=O)N[C@H](C(=O)N[C@@H](Cc1ccc(N=C(N)N)cc1)C(=O)NCc1ccc(C(=N)N)c(F)c1)C(C)C
- Ki (Furin [1]): 0.0037 µM

Compound: CC(=O)N[C@@H](CCCNC(=N)N)C(=O)N[C@H](C(=O)N[C@@H](Cc1ccc(N=C(N)N)cc1)C(=O)NCc1ccc(/C(N)=N/O)cc1)C(C)C
- Ki (Furin [1]): 1.2 µM

Compound: CNC(=O)NCC1CCN(Cc2cc(Oc3ccc(N4CCN(CCC(=O)O)CC4)nc3)nc(-c3cc(Cl)cc(Cl)c3)c2)CC1
- inhibition in vivo at 10 mg/kg (Mus musculus [2]): 67%
- inhibition in vivo at 10 mg/kg (Mus musculus [3]): 39%
- pXC50 (Furin [4]): 7.6

Compound: CC(=O)NCC1CCN(Cc2cc(Oc3ccc(N4CCN(CC(=O)O)CC4)nc3)nc(-c3cc(Cl)cc(Cl)c3)c2)CC1
- inhibition in vivo at 10 mg/kg (Mus musculus [5]): 16%
- inhibition in vivo at 10 mg/kg (Mus musculus [6]): 43%
- pXC50 (Furin [4]): 6.9

Compound: N=C(N)N/N=C/c1ccc(Oc2ccc(Oc3ccc(/C=N/NC(=N)N)cc3)cc2)cc1
- Ki (Furin [7]): 0.74 µM

Compound: CC(C)(C)[C@H](NC(=O)[C@H](CCCNC(=N)N)NC(=O)Cc1ccccc1)C(=O)N[C@@H](CCCNC(=N)N)C(=O)NCc1ccc(C(=N)N)cc1
- Ki (Furin [8]): 0.00017 µM

Compound: CC(=O)NN(CCCNC(=N)N)CC(=O)N[C@@H](C)C(=O)N[C@@H](CCCNC(=N)N)C(=O)N[C@@H](CCCNC(=N)N)C(=O)N[C@@H](CCCNC(=N)N)C(=O)N[C@@H](CCCCN)C(=O)N[C@@H](CCCCN)C(=O)NN(CCCNC(=N)N)CC(=O)N[C@H](C(N)=O)[C@@H](C)O
- half-life [9]: 2.68 h
- IC50 (Vero): 20.8 µM
- remaining at 24 h [10]: 45%
- Ki (Furin [11]): 0.046 µM

Compound: CN1CCCN(c2cnc(Oc3cc(CN4CCC(CC(=O)O)CC4)cc(-c4cc(Cl)cc(Cl)c4)n3)cn2)CC1
- inhibition in vivo at 30 mg/kg (Mus musculus [12]): 21%
- inhibition in vivo at 30 mg/kg (Mus musculus [13]): 26%
- pXC50 (Furin [4]): 7.7

Compound: CC(=O)N[C@@H](CCCNC(=N)N)C(=O)N[C@@H](C)C(=O)N[C@@H](CCCNC(=N)N)C(=O)N[C@@H](CCCNC(=N)N)C(=O)N[C@@H](CCCNC(=N)N)C(=O)N[C@@H](CCCCN)C(=O)N[C@@H](CCCCN)C(=O)NCN(CCCNC(N)N)N[C@H](C(N)=O)[C@@H](C)O (Ac-RARRRKK-X1)
- half-life [9]: 2.25 h
- IC50 (Vero): 314 µM
- remaining at 24 h [10]: 57%
- Ki (Furin [11]): 0.028 µM

Compound: CC(=O)N[C@@H](CCCNC(=N)N)C(=O)N[C@H](C(=O)N[C@@H](Cc1ccc(N=C(N)N)cc1)C(=O)NCc1ccc(C(=N)N)cc1F)C(C)C
- Ki (Furin [1]): 0.009 µM

Compound: CC(=O)NCC1CCN(Cc2cc(Oc3ccc(N4CCN(CCS(C)(=O)=O)CC4)nc3)nc(-c3cc(Cl)cc(Cl)c3)c2)CC1
- inhibition in vivo at 30 mg/kg (Mus musculus [12]): 45%
- inhibition in vivo at 30 mg/kg (Mus musculus [13]): 41%
- pXC50 (Furin [4]): 7.6

Compound: CC(C(=O)N[C@@H](C)C(=O)N[C@@H](CCCNC(=N)N)C(=O)N[C@@H](CCCNC(=N)N)C(=O)N[C@@H](CCCNC(=N)N)C(=O)N[C@@H](CCCCN)C(=O)N[C@@H](CCCCN)C(=O)N[C@@H](CCCNC(=N)N)C(=O)N[C@H](C(N)=O)[C@@H](C)O)n1cc(C(CCCNC(=N)N)NC(=O)[C@@H](N)CCCNC(=N)N)nn1 (stereo partly drawn) (H-R[X2]ARRRKKRT-NH2)
- half-life [9]: 1.24 h
- remaining at 24 h [10]: 20%
- Ki (Furin [11]): 0.013 µM

Compound: N=C(N)N/N=C/c1cccc(OCCCOc2cccc(/C=N/NC(=N)N)c2)c1
- Ki (Furin [7]): 1.7 µM

Compound: CC(C)(C)[C@H](NC(=O)[C@H](CCCNC(=N)N)NC(=O)Cc1ccc(CNC(=N)N)cc1)C(=O)N[C@@H](CCCNC(=N)N)C(=O)NCc1ccc(CN)cc1
- pKa [14]: 9.28
- IC50 (Furin [11]): 0.00953 µM
- Ki (Furin [11]): 0.00252 µM

Compound: CC(=O)N[C@@H](CCCNC(=N)N)C(=O)N[C@@H](C)C(=O)N[C@@H](CCCNC(=N)N)C(=O)N[C@@H](CCCNC(=N)N)C(=O)N[C@@H](CCCNC(=N)N)C(=O)N[C@@H](CCCCN)C(=O)N[C@@H](CCCCN)C(=O)NCc1ccc(C(=N)N)cc1 (Ac-RARRRKK-{NH(4-amidinobenzyl)})
- half-life [9]: 9.1 h
- IC50 (Vero): > 1000 µM
- Ki (Furin [11]): 0.0038 µM

Compound: CC(=O)NCC1CCN(Cc2cc(Oc3cnc(N4CCN(CCC(=O)O)CC4)nc3)nc(-c3cc(Cl)cc(Cl)c3)c2)CC1
- inhibition in vivo at 10 mg/kg (Mus musculus [5]): 60%
- inhibition in vivo at 10 mg/kg (Mus musculus [6]): 86%
- pXC50 (Furin [4]): 8

Compound: C/C(=N\NC(=N)N)c1ccc(NC(=O)CCCCC(=O)Nc2ccc(/C(C)=N/NC(=N)N)cc2)cc1
- Ki (Furin [7]): 1.21 µM

Compound: N=C(N)N/N=C/c1ccc(N2CCN(c3ccc(/C=N/NC(=N)N)cc3)CC2)cc1
- Ki (Furin [7]): 1.54 µM

Compound: CC(C)(C)[C@H](NC(=O)[C@H](CCCNC(=N)N)NC(=O)Cc1ccc(CNC(=N)N)cc1)C(=O)N[C@@H](CCCNC(=N)N)C(=O)NCc1ccc(N)nc1
- pKa [14]: 6.5
- IC50 (Furin [11]): 0.00298 µM
- Ki (Furin [11]): 0.0008 µM

— ChEMBL document CHEMBL5150003, “Why All the Fury over Furin?” (J Med Chem, 2022)
